{
  "source": "patent US9637447B2",
  "about": "“Lauflumide and the enantiomers thereof, method for preparing same and therapeutic uses thereof” (priority 2011, dated 2017)",
  "key": {"[1]": {"test_system": "young Wistar rats", "test": "T-maze test of waiting ability (ADHD model, impulsivity)", "format": "in vivo, rat", "details": "for improving waiting ability, effectiveness versus methylphenidate and d-amphetamine / improving waiting ability, effectiveness versus modafinil: T-maze; for improving waiting ability, effectiveness versus methylphenidate and d-amphetamine: methylphenidate 3 mg/kg, d-amphetamine 1 mg/kg intraperitoneally; for improving waiting ability, effectiveness versus modafinil: modafinil 64 and 128 mg/kg orally; for waiting ability in the T-maze test compared to the control: administered before the test, mazindol 1, 3, 10 mg/kg intraperitoneally, lauflumide 64, 128 mg/kg orally, D-lauflumide 64, 128, 256 mg/kg orally", "text": "The test of waiting ability in a T-maze consists in offering a rat a choice between a quick and immediate food reward and a large but delayed reward. In adult Wistar rats, numerous antidepressants such as serotonin or noradrenalin reuptake inhibitors increase the number of choices for the large but delayed reward, indicating an improvement in waiting ability, i.e., a decrease in impulsivity.\nThe goal of the present study is to examine whether lauflumide in the form of its racemic mixture or its D form ((+) enantiomer), administered in 3 doses before the test, improves waiting ability in young Wistar rats subjected to the T-maze test. An improvement in waiting ability by this compound would indicate that this compound reduces impulsivity and, consequently, could be useful in the treatment of ADHD. Methylphenidate and d-amphetamine are used as a reference product in the same experiment.\nMale Wistar AF rats (Centre d′Elevage Rene Janvier, France) are used, aged 22 days at the beginning of the experiment and between 30 and 42 days at the time the molecules are administered.\nThe experiments were carried out in two identical T-mazes (FIG. 1) made of opaque gray plastic tubes (inner diameter: 7.5 cm), consisting of a starting alley (30 cm long), a transparent plastic box, (10 cm wide, 10 cm deep and 10 cm high) and two arms (35 cm long) each leading to a rectangular black plastic box (18 cm wide, 30 cm deep, 10 cm high). The removable, gray plastic guillotine doors can be inserted in vertical slots located at the entrance to the starting alley and at the end of each arm. One of the goal boxes (left or right, depending on the rat) is continuously provided with a large reward, the other with a small reward. The large and small rewards consist of 5 and 1 pellets, respectively (20 mg, Technical & Scientific Equipment GMBH, Germany). The pellets are placed in a translucent cup before each test.\nThe T-maze test is a validated test which makes it possible, by extrapolation to man, to verify the effectiveness of pharmacological agents effective in ADHD.\n1st phase: habituation. The animals are first subjected to 2 to 6 habituation sessions of 5 minutes each. The rat is gently placed in the starting alley, which is then closed off by a guillotine door inserted in the slot (reference c0 in FIG. 1). The animal is allowed to freely explore the device and to eat the rewards placed in the cups.\n2nd phase: pre-training. A door is placed in slot c2 near each goal box and then the rat is placed in the starting alley. When it enters one of the two arms, a door is inserted behind it in slot c1 near the choice point and the door placed in slot c2 is removed. Once the animal enters the goal box, the door is replaced in slot c2. The rat is removed from the goal box as soon as it eats the pellets. The animal is then returned to its cage for 2 to 3 minutes. One to three times per day, each rat is subjected to five test sessions. In four to 12 sessions, the rat chooses the arm leading to the large reward in more than 80% of the tests. The training phase then begins.\n3rd phase: training. During training the rats 1 to 4 times/day undergo sessions of 5 tests during which a delay is introduced before access to the large reward is granted. After a door is placed in slot c2 near each goal box, the rat is placed in the starting alley. When it enters one of the two arms, a second door is inserted behind it in slot c1 near the choice point, so that the rat choosing the training arm with the large reward can be held in this arm for 30 seconds—the waiting period—before having access to the reinforcement. If not, if the animal chooses the arm leading to the small reward, the door placed in slot c2 is immediately removed, allowing the animal to enter the goal box. The testing of the drugs begins when the animal chooses the large reward delayed by 30 seconds in 2 tests in 5 (or fewer) during two consecutive sessions and in 1 test in 5 (or fewer) in the following session. […]"}, "[2]": {"test": "Comparative effectiveness stated in the description (no method given)"}, "[3]": {"test_system": "young Wistar rats", "details": "cited from earlier work; for waiting ability in the T-maze test: young rats"}},
  "note": "Like-named read-outs stand apart in the source and are kept apart here.",
  "data": [
    {"smiles": "NC(=O)C[S@@+]([O-])C(c1ccc(F)cc1)c1ccc(F)cc1", "note": "[D-Lauflumide]", "values": [
      {"measurement": "improving waiting ability, effectiveness versus methylphenidate and d-amphetamine", "setting": "[1]", "value": "at least as effective as methylphenidate and d-amphetamine"},
      {"measurement": "improving waiting ability, effectiveness versus modafinil", "setting": "[1]", "value": "more effective than modafinil"},
      {"measurement": "waiting ability in the T-maze test compared to the control", "setting": "[1]", "value": "improve waiting ability"},
      {"measurement": "effectiveness versus the racemic mixture of lauflumide", "setting": "[2]", "value": "more effective than the racemic mixture of lauflumide"}
    ]},
    {"smiles": "CNCCCN1c2ccccc2CCc2ccccc21", "note": "[desipramine]", "values": [
      {"measurement": "waiting ability in the T-maze test", "setting": "[3]", "value": "improved waiting ability"}
    ]},
    {"smiles": "NC(=O)C[S+]([O-])C(c1ccc(F)cc1)c1ccc(F)cc1", "note": "(racemic) [Lauflumide]", "values": [
      {"measurement": "waiting ability in the T-maze test compared to the control", "setting": "[1]", "value": "improve waiting ability"},
      {"measurement": "effectiveness relative to adrafinil", "setting": "[2]", "value": 20, "unit": "times"},
      {"measurement": "effectiveness relative to modafinil", "setting": "[2]", "value": 4, "unit": "times"}
    ]},
    {"smiles": "CNCC[C@@H](Oc1ccccc1C)c1ccccc1", "note": "[atomoxetine]", "values": [
      {"measurement": "waiting ability in the T-maze test", "setting": "[3]", "value": "improved waiting ability"}
    ]},
    {"smiles": "COC(=O)C(c1ccccc1)C1CCCCN1", "note": "(centres unmarked) [methylphenidate]", "values": [
      {"measurement": "number of choices for the large but delayed reward", "setting": "[3]; adult Wistar rats, spontaneously hypertensive rats (SHR) and Wistar Kyoto (WKY) rats", "value": "not"},
      {"measurement": "number of choices for the large but delayed reward", "setting": "[3]; young Wistar rats", "value": "increases the number of choices for the large but delayed reward"},
      {"measurement": "waiting ability in the T-maze test", "setting": "[3]", "value": "improved waiting ability"}
    ]},
    {"smiles": "CC(N)Cc1ccccc1", "note": "(racemic) [amphetamine, D,L-amphetamine]", "values": [
      {"measurement": "waiting ability in the T-maze test", "setting": "[3]", "value": "improved waiting ability"}
    ]},
    {"smiles": "OC1(c2ccc(Cl)cc2)c2ccccc2C2=NCCN21", "note": "(centres unmarked) [Mazindol, mazindol]", "values": [
      {"measurement": "improving waiting ability, effectiveness versus methylphenidate and d-amphetamine", "setting": "[1]", "value": "at least as effective as methylphenidate and d-amphetamine"},
      {"measurement": "improving waiting ability, effectiveness versus modafinil", "setting": "[1]", "value": "more effective than modafinil"},
      {"measurement": "waiting ability in the T-maze test compared to the control", "setting": "[1]", "value": "improve waiting ability"}
    ]},
    {"smiles": "Clc1cccc(Cl)c1N=C1NCCN1", "note": "[clonidine]", "values": [
      {"measurement": "waiting ability in the T-maze test", "setting": "[3]", "value": "improved waiting ability"}
    ]}
  ]
}
